Measured values as given in patent US12497411B2, “Muscarinic acetylcholine receptor subtype 4 antagonists in the treatment of anemia” (COLD SPRING HARBOR LABORATORY, priority 2019, dated 2025).
pKi: −log10 of the molar value.

Legend:
[1] = target: T1, human recombinant CHRM2 receptor (Homo sapiens, UniProt P08172); experiment: Radioligand binding assay, CHRM2; conditions: [3H]AF-DX 384 (2 nM), CHO cell membranes, 60 minutes at room temperature; read-out: Ki M2
T1 construct: expressed in transfected cells; host or cells: CHO cells (membranes)
T1 sequence (P08172 1-466): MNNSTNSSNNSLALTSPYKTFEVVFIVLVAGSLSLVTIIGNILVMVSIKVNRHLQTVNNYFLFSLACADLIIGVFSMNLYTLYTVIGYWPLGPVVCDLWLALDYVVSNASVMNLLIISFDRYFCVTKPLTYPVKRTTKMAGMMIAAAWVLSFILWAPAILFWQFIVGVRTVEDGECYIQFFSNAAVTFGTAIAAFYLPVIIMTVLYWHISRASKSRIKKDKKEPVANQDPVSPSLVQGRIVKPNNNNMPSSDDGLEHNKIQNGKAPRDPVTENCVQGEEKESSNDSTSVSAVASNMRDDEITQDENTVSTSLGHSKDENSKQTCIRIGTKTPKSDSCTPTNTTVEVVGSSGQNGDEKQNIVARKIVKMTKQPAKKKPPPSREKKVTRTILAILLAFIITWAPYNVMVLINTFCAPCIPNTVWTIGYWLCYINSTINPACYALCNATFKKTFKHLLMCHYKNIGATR
Experimental: (§1) PD102807 and Compounds A-K at concentrations of 1×10^−9 M, 1×10^−8 M, 1×10^−7 M, 1×10^−6 M, and 1×10^−5 M were tested in standard binding assays with radioligands and cell membranes with receptors. Compound binding was calculated as a percent inhibition of the binding of a radioactively labeled ligand specific for each target, and the Ki values were determined. For CHRM1, the binding assay was performed using [^3H]pirenzepine (2 nM) as a radioligand and membranes of CHO cells with human recombinant CHRM1 receptor. The incubation time was 60 minutes at room temperature. For CHRM2, the binding assay was performed using [^3H]AF-DX 384 (2 nM) as a radioligand and membranes of CHO cells with human recombinant CHRM2 receptor. The incubation time was also 60 minutes at room temperature. For CHRM3, the binding assay was performed using [^3H]4-DAMP (0.2 nM) as a radioligand and membranes of CHO cells with human recombinant CHRM3 receptor. The incubation time was also 60 minutes at room temperature. For CHRM4, the binding assay was performed using [^3H]4-DAMP (0.2 nM) as a radioligand and membranes of CHO cells with human recombinant CHRM4 receptor. The incubation time was also 60 minutes at room temperature. For CHRM5, the binding assay was performed using [^3H]4-DAMP (0.3 nM) as a radioligand and membranes of CHO cells with human recombinant CHRM5 receptor. The incubation time was also 60 minutes at room temperature.

[2] = test system: PHZ induced hemolytic anemia in C57bl/6 mice; experiment: PHZ induced hemolytic anemia mouse model, CBC; format: in vivo; conditions: 60 mg/kg phenylhydrazine
Experimental: Animal experiments were conducted in the Cold Spring Harbor Laboratory Animal Shared Resource in accordance with Institutional Animal Care and Use Committee-approved procedures. 4-6 weeks old C57bl/6 mice, purchased from Jackson Laboratory and randomly distributed into compound and control treatment groups, were given through oral delivery of PCS1055 (50 mg/kg or 100 mg/kg) twice per day or PD102807 (50 mg/kg or 100 mg/kg) once per day everyday for 3 days. On day 3, mice were intraperitoneally injected with 60 mg/kg PHZ. Mice were then given through oral delivery of PD102807 (50 mg/kg or 100 mg/kg) once per day every day for 2 days. Peripheral blood samples were collected retro-orbitally on day 6 using heparinized capillary tubes in blood collection tubes with K2-EDTA. CBC was performed using Hemavet 950. […] C57bl/6 mice were injected with 60 mg/kg phenylhydrazine to induce hemolysis. Mice were delivered with either vehicle control or Compound A or B (30 mg/kg or 100 mg/kg). Peripheral blood samples were collected retro-orbitally using heparinized capillary tubes into blood collection tubes with K2-EDTA. Complete blood counting was performed using Hemavet 950. Hematocrit (HCT), red blood cell (RBC) and hemoglobin (Hb) values are shown. […] C57bl/6 mice were injected with 60 mg/kg phenylhydrazine to induce hemolysis. Mice were delivered with subcutaneous injection with either vehicle control or Compound B (1.5 mg/kg, 3 mg/kg, or 5 mg/kg) or I (0.5 mg/kg, 0.7 mg/kg, or 1 mg/kg). Peripheral blood samples were collected retro-orbitally using heparinized capillary tubes into blood collection tubes with K2-EDTA. Complete blood counting was performed using Hemavet 950. Hematocrit (HCT), red blood cell (RBC) and hemoglobin (Hb) values are shown.

CHRM4 = target: T2, CHRM4 (Homo sapiens, UniProt P08173); experiment: Radioligand binding assay, CHRM4; set-up: expressed in transfected cells; host or cells: CHO cells (membranes); conditions: [3H]4-DAMP (0.2 nM), CHO cell membranes, 60 minutes at room temperature; read-out: Ki M4
T2 sequence (P08173 1-479): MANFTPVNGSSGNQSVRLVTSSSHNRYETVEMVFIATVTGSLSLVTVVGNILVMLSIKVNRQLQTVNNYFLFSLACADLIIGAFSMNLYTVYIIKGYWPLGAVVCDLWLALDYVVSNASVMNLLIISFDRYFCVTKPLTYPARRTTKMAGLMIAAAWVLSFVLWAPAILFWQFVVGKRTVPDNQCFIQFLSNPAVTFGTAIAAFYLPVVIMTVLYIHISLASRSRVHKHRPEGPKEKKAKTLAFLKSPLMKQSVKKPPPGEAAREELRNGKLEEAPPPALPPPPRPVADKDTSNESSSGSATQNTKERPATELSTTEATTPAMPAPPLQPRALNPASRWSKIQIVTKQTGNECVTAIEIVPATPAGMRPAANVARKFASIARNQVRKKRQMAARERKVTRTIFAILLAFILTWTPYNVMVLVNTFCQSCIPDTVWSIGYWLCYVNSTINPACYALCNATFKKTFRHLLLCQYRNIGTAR
Experimental: as §1

[3] = target: T3, human recombinant CHRM5 receptor (Homo sapiens, UniProt P08912); experiment: Radioligand binding assay, CHRM5; conditions: [3H]4-DAMP (0.3 nM), CHO cell membranes, 60 minutes at room temperature; read-out: Ki M5
T3 construct: expressed in transfected cells; host or cells: CHO cells (membranes)
T3 sequence (P08912 1-532): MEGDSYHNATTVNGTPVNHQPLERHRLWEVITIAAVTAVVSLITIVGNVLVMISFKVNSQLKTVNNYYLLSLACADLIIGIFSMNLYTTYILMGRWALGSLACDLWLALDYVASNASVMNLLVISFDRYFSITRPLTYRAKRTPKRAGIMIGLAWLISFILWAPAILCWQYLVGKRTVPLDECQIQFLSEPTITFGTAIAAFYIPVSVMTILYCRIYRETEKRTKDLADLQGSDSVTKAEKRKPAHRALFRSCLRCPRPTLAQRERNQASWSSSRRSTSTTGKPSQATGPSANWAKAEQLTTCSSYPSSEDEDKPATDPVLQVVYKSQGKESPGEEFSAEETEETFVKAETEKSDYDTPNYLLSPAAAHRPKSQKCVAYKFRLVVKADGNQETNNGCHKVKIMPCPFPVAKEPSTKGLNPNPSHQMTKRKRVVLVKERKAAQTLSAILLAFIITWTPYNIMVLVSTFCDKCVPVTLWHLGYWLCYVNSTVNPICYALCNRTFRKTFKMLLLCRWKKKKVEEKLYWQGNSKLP
Experimental: as §1

[4] = target: T4, human recombinant CHRM1 receptor (Homo sapiens, UniProt P11229); experiment: Radioligand binding assay, CHRM1; conditions: [3H]pirenzepine (2 nM), CHO cell membranes, 60 minutes at room temperature; read-out: Ki M1
T4 construct: expressed in transfected cells; host or cells: CHO cells (membranes)
T4 sequence (P11229 1-460): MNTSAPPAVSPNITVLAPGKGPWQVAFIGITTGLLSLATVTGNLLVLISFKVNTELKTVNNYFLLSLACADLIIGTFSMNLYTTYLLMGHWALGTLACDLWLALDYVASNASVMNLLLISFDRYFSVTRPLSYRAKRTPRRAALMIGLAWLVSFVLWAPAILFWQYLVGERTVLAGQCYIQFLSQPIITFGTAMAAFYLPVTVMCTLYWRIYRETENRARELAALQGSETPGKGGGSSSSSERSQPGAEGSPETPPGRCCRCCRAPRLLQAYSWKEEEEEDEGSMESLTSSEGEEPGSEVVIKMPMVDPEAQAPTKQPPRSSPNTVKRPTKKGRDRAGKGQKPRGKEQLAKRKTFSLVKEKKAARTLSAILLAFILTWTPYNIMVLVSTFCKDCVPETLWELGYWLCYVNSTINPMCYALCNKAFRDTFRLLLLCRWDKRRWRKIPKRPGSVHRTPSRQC
Experimental: as §1

In the case of `CCOC(=O)c1c(C)[nH]c2ccc3c(c12)C[N+]1(C)CCc2cc(OC)ccc2C1O3` (single isomer, unassigned) [Compound A, 1-(ethoxycarbonyl)-9-methoxy-2,13-dimethyl-3,6a,11,12,13,14-hexahydroindolo[4′,5′:5,6][1,3]oxazino[2,3-a]isoquinolin-13-ium Iodide], the pKi [1] was 5.66, the “treatment of anemia in vivo (HCT, RBC, Hb)” value ([2]; 30 mg/kg or 100 mg/kg, C57bl/6 mice) was “treat anemia in vivo” and the pKi (CHRM4) was 5.74. The pKi [3] was 5.46.
With `CCOC(=O)c1c(C)n(C)c2ccc3c(c12)C[N+]1(C)CCc2cc(OC)ccc2C1O3` (single isomer, unassigned) [Compound I, 1-(ethoxycarbonyl)-9-methoxy-2,3,13-trimethyl-3,6a,11,12,13,14-hexahydroindolo[4′,5′:5,6][1,3]oxazino[2,3-a]isoquinolin-13-ium Iodide] the pKi [1] was 5.77, the “treatment of anemia in vivo (HCT, RBC, Hb)” value ([2]; subcutaneous injection, B 1.5, 3 or 5 mg/kg, I 0.5, 0.7 or 1 mg/kg) was “treat anemia in vivo” and the pKi (CHRM4) was 6.13. For the same molecule, the pKi [4] was 5.07 and the pKi [3] was 5.00.
